In patent publication US20250281461A1 (The Board of Supervisors of Louisiana State University and …, priority 2021, published 2025):

Settings: mouse, in vivo

Cc1ccc(NC(=O)c2ccc(CN3CCN(C)CC3)cc2)cc1Nc1nccc(-c2cccnc2)n1 [Imatinib]
no significant changes: serum ALT levels | serum AST levels | serum BUN levels

COC(=O)Nc1nc2ccc(C(=O)c3ccccc3)cc2[nH]1 [Mebendazole]
no significant changes: serum ALT levels | serum AST levels | serum BUN levels
